Biological target: Rv1515c (Mycobacterium tuberculosis, UniProt P71794)
Sequence (P71794 entry or part of it): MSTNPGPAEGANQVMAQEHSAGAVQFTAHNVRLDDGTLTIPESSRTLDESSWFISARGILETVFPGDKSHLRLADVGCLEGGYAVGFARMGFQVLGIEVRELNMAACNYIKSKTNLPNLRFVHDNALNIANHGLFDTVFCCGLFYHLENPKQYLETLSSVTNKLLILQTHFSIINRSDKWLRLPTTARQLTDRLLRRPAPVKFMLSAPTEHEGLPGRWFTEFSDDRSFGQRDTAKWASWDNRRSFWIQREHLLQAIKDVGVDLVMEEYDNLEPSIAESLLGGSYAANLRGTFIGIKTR

## C[S+](CC[C@H](N)C(=O)O)C[C@H]1O[C@@H](n2cnc3c(N)ncnc32)[C@H](O)[C@@H]1O (stereo partly shown) [S-adenosylmethionine]
  EpiQuik DNA MTase kit, 5-methylcytosine antibody detection, absorbance 450 nm: ability of the Rv1515c to transfer a methyl group from Adomet to cytosine

Reference: article PMC9263924, “Mycobacterium tuberculosis Methyltransferase Rv1515c Can Suppress Host Defense Mechanisms by Modulating Immune Functions Utilizing a Multipronged Mechanism” (Frontiers in Molecular Biosciences, 2022)
